# Results taken from ChEMBL document CHEMBL1134572, “Specific inhibition of a family 1A dihydroorotate dehydrogenase by benzoate pyrimidine analogues” (J Med Chem, 2001).
# Legend:
# Lactococcus lactis = experiment: Inhibitory activity against family of dihydroorotate dehydrogenase 1A (1A DHOD) from Lactococcus lactis at 1 uMolar concentration; parameters: scale not given: the % may be the effect or the level left; details: 1 uM
# [1] = Inhibition constant against dihydroorotate dehydrogenase 1A (1A DHOD) from Lactococcus lactis
# [2] = Dissociation constant against dihydroorotate dehydrogenase 1A (1A DHOD) from Lactococcus lactis at 25 degrees C pH 8.0
# [3] = Inhibition constant against 1A […] dehydrogenase (1A DHOD) from Lactococcus lactis
# [4] = Dissociation constant against 1A […] dehydrogenase (1A DHOD) from Lactococcus lactis at 25 degrees C pH 8.0
Compound,Activity (Lactococcus lactis) [%],also measured
O=C(O)c1ccc(O)cc1,92,
O=C(O)c1ccc(O)cc1O,91,
O=C(O)c1ccc(O)nc1,94,
O=C(O)c1ccccc1O,81,
"O=C(O)c1cc(O)cc(O)c1 [3,5-DIHYDROXYBENZOIC ACID]",6,Ki [1]: 21 µM; Kd [2]: 18.4 µM
O=C(O)c1ccc(O)c(O)c1 [PROTOCATECHUIC ACID],7,Ki [3]: 12 µM; Kd [4]: 19 µM
